According to publication PMC7073886, “Structure–Bioactivity Relationships of Lapatinib Derived Analogs against Schistosoma mansoni” (ACS Medicinal Chemistry Letters, 2020):

Experiments:
[1] = Rat hepatocyte Clint; type: in vitro ADME; settings: rat hepatocytes, intrinsic clearance; read-out: RH CLint
[2] = Log D7.4 shake-flask octanol-water; type: physicochemical; settings: pH 7.4
Experimental: Log D7.4. Shake-flask octanol-water distribution coefficient was determined at pH 7.4 (Log D7.4). The aqueous solution used is 10 mM sodium phosphate pH 7.4 buffer. The method has been validated for Log D7.4 ranging from -2 to 5.0.
Human Plasma Protein Binding (PPB). PPB was determined using equilibrium dialysis (RED device) to separate free from bound compound. The amount of compound in plasma (10 µM initial concentration) and in dialysis buffer (pH 7.4 phosphate buffer) was measured by LC-MS/MS after equilibration at 37 °C in a dialysis chamber. The fraction unbound (fu) is reported.
Human Liver Microsomal Clint. In vitro intrinsic clearance was determined from human liver microsomes using a standard approach.11 Following incubation and preparation, the samples were analyzed using […]
Rat Hepatocyte Clint. In vitro intrinsic clearance was determined from rat hepatocytes using a standard approach.11 Following incubation and preparation, the samples were analyzed using LC/MS/MS. Refined […]
Calculated LogP and LogD values. Both LogP and LogD predictions are based on a modified version of the method12 where the predicted partition coefficients are composed of the molecules’ atomic increments.
General Chemistry. All starting materials were commercially obtained and were used without further purification, unless specified. Reaction solvents were purified by passage through alumina columns on a purification system manufactured by Innovative Technology (Newburyport, MA). NMR spectra were obtained on Varian NMR systems, operating at 400 or 500 MHz for 1 H acquisitions. LCMS analysis was performed using a Waters AllianceHT e2795 reverse phase HPLC (Waters SunFire C18 4.6 × 50 mm, 3.5 μm column), with a Waters 2996 photodiode array detector scanning from 210 nm to 600 nm, and Waters Micromass ZQ detector (electrospray ionization). Where required, final compounds were purified by preparative reverse phase HPLC (columns Waters Symmetry RP8 30 × 50 mm, 5 μm column, or OBD RP18 30 × 50 mm, 5 μm), with a single wavelength UV−visible detector and Waters Micromass ZQ (electrospray ionization).

[3] = system: adult S. mansoni; assay: Phenotypic screen of adult S. mansoni worms, severity scores and descriptors; type: cell-based, Schistosoma mansoni; settings: for Descriptors (10 µM) 1 h / Severity Scores (10 μM) 1 h / Descriptors (10 µM) 5 h / Severity Scores (10 μM) 5 h / Descriptors (10 µM) 24 h / Severity Scores (10 μM) 24 h / Severity Scores (10 μM) 48 h / Descriptors (10 µM) 48 h: adult S. mansoni; for Descriptors (10 µM) 1 h / Descriptors (10 µM) 5 h / Descriptors (10 µM) 24 h / Descriptors (10 µM) 48 h: phenotypic descriptors; for Severity Scores (10 μM) 1 h / Severity Scores (10 μM) 5 h / Severity Scores (10 μM) 24 h / Severity Scores (10 μM) 48 h: scale 0 (no activity) to 4 (maximal activity); for bioactivity against adult S. mansoni: adult schistosomes; for Severity Scores (10 μM) 1 h / Severity Scores (10 μM) 5 h / Severity Scores (10 μM) 24 h / Severity Scores (10 μM) 48 h / bioactivity against adult S. mansoni: 10 μM
Description: Because the schistosome parasite can present multiple and dynamic phenotypic responses to chemical insult,[16] we employ a constrained nomenclature of descriptors to describe the changes in the parasite as a function of time and concentration (e.g., motility, density, and shape; and in the case of the adult parasite, an inability to adhere to the bottom of the assay dish). These descriptors are converted into severity scores on a scale of 0 (green)–4 (severest/red) that allow for partially quantitative comparisons of compound effects.[1]−[19] […] The descriptors themselves and their respective scores are detailed in the Supporting Information, Table S1. Severity score data are presented in the results (with the corresponding descriptors detailed in the Supporting Information, Tables S2–S8), and eight new analogs developed and synthesized in support of this effort are described. Finally, absorption, distribution, metabolism and excretion (ADME) data of all compounds presented in this work are reported in the Supporting Information, Table S15.
Table S1. Descriptors and associated severity scores used for S. mansoni adults.
R (rounded or shape altered 1
On sides (adults unable to 1
Shrunk (adults are shorter 1
surface (tegument) of adults)
dfailed to create analytical method
Maintenance of the Schistosoma mansoni life cycle (NMRI isolate), the preparation of adult worms (≥ 42-
days-old), and their co-incubation with test compounds were as described.7-9 Phenotypic responses were
visually recorded using a constrained nomenclature and converted to severity scores on a scale from zero
(no activity) to 4 (maximal activity).8, 9 Use of hamsters for maintaining the S. mansoni life-cycle was
approved by the Institutional Animal Care and Use Committee of the University of California San Diego.
The human myelomonocytic cell line THP -1 was grown at 37 °C and 5% CO2 in RPMI-1640 supplemented
with 10% iFBS, 2 mM glutamate, 100 U/mL penicillin and […] streptomycin.
Drug toxicity to HepG2 cells .10 HepG2 cells line were obtained from the American Type Culture
Collection and cultured in Minimal Essential Medium (MEM) supplemented with 0.19% sodium
bicarbonate, 10% Fetal Bovine Serum, 2 mM L -glutamine, 0.1 mM MEM non-essential amino, 0.009
mg/mL insulin, 1.76 mg/mL bovine serum albumin. The viability of the cells was measured using the MTT
(thiazolyl blue reduction) method. Briefly, ninety -six-well plates were seeded with 2.5 × 10^4 cells/well in
170 ml of culture medium and incubated overnight in 5% CO 2 at 37 °C. Cells were exposed to different
experimental compounds in DMSO. After 48 hours incubation, the viability of the cells was assessed using
MTT (thiazolyl blue reduction) as a dose response assay (11 two -fold serial dilutions) to obtain a calculated
IC50 determination. 4-Azaindolo[2,1-b]quinazoline-6,12-dione is used as a toxicity positive control and
each assay plate includes the following 3 additional controls: a) background control: no cells and no drug
was added, b) target control: cells added but no drugs, and c) DMSO control: same as the target control
except the culture media contains 0.6% DMSO. Absorbance was determined in all wells using a Perkin
Elmer, Ensight plate reader. The fifty percent inhibitory concentrations (IC50’s) were determined using
GraphPad Prism nonlinear regr ession (sigmoidal dose -response, variable slope) equation .
ADME Experiment Protocols
Aqueous pH 7.4 Solubility. Compounds were dried down from 10 mM DMSO solutions using centrifugal
evaporation technique. Phosphate buffer (0.1 M pH 7.4) was added and StirStix were inserted in the glass
vials, with shaking then performed at a constant temperature of 25 °C for 20 -24 h. This step was followed
by double centrifugation with a tip wash in between, to ensure that no residues of the dried compounds
interfere. The solutions were diluted before analysis and quantification using LC/MS/MS was performed.

## CN1CCN(c2ncc(-c3ccc4c(NCCN5CCCC5)ccnc4c3)cn2)CC1 [S1b]
[1]
  hepatocyte CLint: 1 µL/min/1e6 cells
[2]
  logD: 1.2
[3]
  Descriptors (10 µM) 1 h: none
  Severity Scores (10 μM) 1 h: 0
  Descriptors (10 µM) 5 h: none
  Severity Scores (10 μM) 5 h: 0
  Descriptors (10 µM) 24 h: none
  Severity Scores (10 μM) 24 h: 0
  Severity Scores (10 μM) 48 h: 1
  bioactivity against adult S. mansoni: no significant bioactivity

## CN1CCN(c2ncc(-c3ccc4c(NC5CCOCC5)ccnc4c3)cn2)CC1 [S1d]
[2]
  logD: 1.7
[3]
  Descriptors (10 µM) 1 h: none
  Severity Scores (10 μM) 1 h: 0
  Descriptors (10 µM) 5 h: none
  Severity Scores (10 μM) 5 h: 0
  Descriptors (10 µM) 24 h: none
  Severity Scores (10 μM) 24 h: 0
  Descriptors (10 µM) 48 h: none
  Severity Scores (10 μM) 48 h: 0
  bioactivity against adult S. mansoni: no significant bioactivity

## Cc1c(-c2cnc(N3CCN(C)CC3)nc2)ccc2c(Nc3cnccn3)ccnc12 [9a]
[1]
  hepatocyte CLint: 52 µL/min/1e6 cells
[2]
  logD: 3.3
[3]
  Descriptors (10 µM) 1 h: none
  Severity Scores (10 μM) 1 h: 0
  Descriptors (10 µM) 5 h: none
  Severity Scores (10 μM) 5 h: 0
  Severity Scores (10 μM) 24 h: 1
  Severity Scores (10 μM) 48 h: 2
  bioactivity against adult S. mansoni: moderate potency after 24 h

## CCCN1CCN(c2ncc(-c3ccc4c(Nc5cnccn5)ccnc4c3)cn2)CC1 [4c]
[1]
  hepatocyte CLint: 45 µL/min/1e6 cells
[2]
  logD: 4.2
[3]
  Descriptors (10 µM) 1 h: none
  Severity Scores (10 μM) 1 h: 0
  Severity Scores (10 μM) 5 h: 1
  Descriptors (10 µM) 24 h: On sides, S
  Severity Scores (10 μM) 24 h: 2
  Severity Scores (10 μM) 48 h: 4
  bioactivity against adult S. mansoni: activity after 5 h

## COc1ccc(NC(=O)c2ccc(-c3cnc(N4CCCN(C)CC4)nc3)cc2O)cc1Cl [7b]
[1]
  hepatocyte CLint: 120 µL/min/1e6 cells
[2]
  logD: 3.4
[3]
  Descriptors (10 µM) 1 h: none
  Severity Scores (10 μM) 1 h: 0
  Severity Scores (10 μM) 5 h: 1
  Severity Scores (10 μM) 24 h: 2
  Severity Scores (10 μM) 48 h: 4
  bioactivity against adult S. mansoni: minimal bioactivity after 5 h and potent activity after 48 h

## Cc1cnc(Nc2ccnc3cc(-c4cnc(N5CCCN(C)CC5)nc4)ccc23)cn1 [5b]
[1]
  hepatocyte CLint: 24 µL/min/1e6 cells
[2]
  logD: 2.9
[3]
  Descriptors (10 µM) 1 h: none
  Severity Scores (10 μM) 1 h: 0
  Descriptors (10 µM) 5 h: none
  Severity Scores (10 μM) 5 h: 0
  Descriptors (10 µM) 24 h: Dark, S, on sides
  Severity Scores (10 μM) 24 h: 3
  Severity Scores (10 μM) 48 h: 4
  bioactivity against adult S. mansoni: bioactivity recorded after 24 h

## CN1C[C@H]2C[C@@H]1CN2c1ncc(-c2ccc3c(Nc4cnccn4)ccnc3c2)cn1 [4a]
[1]
  hepatocyte CLint: 17 µL/min/1e6 cells
[2]
  logD: 2.2
[3]
  Descriptors (10 µM) 1 h: none
  Severity Scores (10 μM) 1 h: 0
  Descriptors (10 µM) 5 h: none
  Severity Scores (10 μM) 5 h: 0
  Severity Scores (10 μM) 24 h: 1
  Severity Scores (10 μM) 48 h: 1
  bioactivity against adult S. mansoni: minimal bioactivity was observed after 48 h

## O=C(O)CN1CCN(c2ncc(-c3ccc4c(Nc5cnccn5)ccnc4c3)cn2)CC1 [3b]
[1]
  hepatocyte CLint: 8.9 µL/min/1e6 cells
[2]
  logD: 0.7
[3]
  Descriptors (10 µM) 1 h: none
  Severity Scores (10 μM) 1 h: 0
  Descriptors (10 µM) 5 h: none
  Severity Scores (10 μM) 5 h: 0
  Descriptors (10 µM) 24 h: none
  Severity Scores (10 μM) 24 h: 0
  Descriptors (10 µM) 48 h: none
  Severity Scores (10 μM) 48 h: 0
  bioactivity against adult S. mansoni: no bioactivity

## CCN1CCCN(c2ncc(-c3ccc4c(Nc5cnccn5)ccnc4c3)cn2)CC1 [4e]
[1]
  hepatocyte CLint: 30 µL/min/1e6 cells
[2]
  logD: 2.7
[3]
  Descriptors (10 µM) 1 h: none
  Severity Scores (10 μM) 1 h: 0
  Descriptors (10 µM) 5 h: none
  Severity Scores (10 μM) 5 h: 0
  Descriptors (10 µM) 24 h: none
  Severity Scores (10 μM) 24 h: 0
  Descriptors (10 µM) 48 h: none
  Severity Scores (10 μM) 48 h: 0

## CN1CCN(c2ncc(-c3ccc4c(Nc5cnccn5)ccnc4c3)cn2)CC1 [compound 3]
[3]
  Descriptors (10 µM) 1 h: none
  Severity Scores (10 μM) 1 h: 0
  Descriptors (10 µM) 5 h: none
  Severity Scores (10 μM) 5 h: 0
  Descriptors (10 µM) 24 h: none
  Severity Scores (10 μM) 24 h: 0
  Descriptors (10 µM) 48 h: none
  Severity Scores (10 μM) 48 h: 0
  bioactivity against adult S. mansoni: no bioactivity
